# Test results: patent publication US3974268A, “Bone-seeking technetium-99m imidodiphosphonate complex” (priority 1975, dated 1976)
# Experiments:
# [1] = Organ distribution of 99mTc-IDP in rabbits with 85Sr administered simultaneously (Table 1); type: in vivo, New Zealand adult albino rabbits; conditions: for % Dose/1% Body Weight, AVG BONE: mean of femur, tibia, spine, pelvis
# Experimental: The organ distribution of the ^99m Tc imidodiphosphonate (IDP) was studied after I.V. injection of 50-200 μCi containing 0.1-0.2 mg of IDP per animal in New Zealand adult albino rabbits weighing 3.5-5 kg and compared with 10-20 μCi of ^85 Sr administered simultaneously as a biological standard. The methods of tissue assay used were those described in the Subramanian et al. references, supra. These animals were sacrificed at various time intervals from 15 min. to 24 hrs. after injection. […] A whole body image of the dog was obtained in the right lateral projection 4 hours after intravenous injection of 5 mCi of ^99m Tc-IDP using the Ohio Nuclear Model 100 area scan camera fitted with a 140 kev high sensitivity parallel hole collimator, with the data density setting of 200.
# Table 1 contains biological distribution data of ^99m Tc-IDP in rabbits with ^85 Sr used simultaneously. The numbers shown in parenthesis after the time of study is the number of animals used per time interval. The values for each organ shown are the averages for each group of animals. The bone concentration shown as % dose / 1% body weight is the mean value of individual average of concentrations in four types of bone; the femur, tibia, spine and pelvis. An overall mean concentration of the four types of bone was calculated for each animal and then the average of these mean values were determined. Similarly the mean values for bone/organ ratios were calculated for each group.
# In order to compensate for biologic variation, bone agents are best studied by comparing the quantitative uptake of the new compound with simultaneously administered ^85 Sr as a means of normalization. In comparing several ^99m Tc labeled agents between each other one should not only compare the whole organ uptake of individual compounds but also the ratios of their concentrations with ^85 Sr, especially so in comparing bone uptakes. Due to regional variation in bone uptake with the skeleton it is difficult to correctly estimate whole body bone uptake quantitatively. Nevertheless, the data for single whole bones (femur and tibia) is useful. […] This concentration change over serial time intervals may be due to the metabolic breakdown of the compound at the bone mineral surface with the ^99m Tc complex being more labile, while we known the biological half life of ^85 Sr is prolonged. Even at the later time intervals than 2 hours, ^99m Tc-IDP concentration in bone is at least 20-25% higher than the other Tc complexes (Table 2). The soft tissue concentrations of all these complexes are lower, especially that of the muscle, than ^85 Sr. The liver concentration is somewhat higher than ^85 Sr for some ^99m Tc complexes. This should not be a problem because the total liver concentration is relatively low.
# [2] = in words, stated as known; cited from earlier work
# [3] = 2 hours after I.V. injection, mean of 9 rabbits
# [4] = 4 hours after I.V. injection, mean of 9 rabbits
# [5] = 24 hours after I.V. injection, mean of 7 rabbits
smiles,measurement,setting,value
[85Sr] [85Sr],"% Dose/1% Body Weight, LG INT",[1]; [3],0.762 % Dose/1% Body Weight
same,"% Dose/1% Body Weight, LIVER",[1]; [3],0.357 % Dose/1% Body Weight
same,"% Dose/1% Body Weight, MARROW",[1]; [3],0.227 % Dose/1% Body Weight
same,"% Dose/1% Body Weight, MUSCLE",[1]; [3],0.186 % Dose/1% Body Weight
same,"% Dose/1% Body Weight, PELVIS",[1]; [3],7.35 % Dose/1% Body Weight
same,"% Dose/1% Body Weight, SM INT",[1]; [3],0.669 % Dose/1% Body Weight
same,"% Dose/1% Body Weight, SPINE",[1]; [3],8.05 % Dose/1% Body Weight
same,"% Dose/1% Body Weight, TIBIA",[1]; [3],6.60 % Dose/1% Body Weight
same,RATIOS BONE/BLOOD,[1]; [3],10.5
same,RATIOS BONE/MARROW,[1]; [3],36
same,RATIOS BONE/MUSCLE,[1]; [3],44
same,"% Dose/1% Body Weight, AVG BONE","[1]; 2 hours after I.V. injection, 9 rabbits",7.21 % Dose/1% Body Weight
same,"% Dose in Whole Organ, BLOOD",[1]; [4],2.72 % Dose
same,"% Dose in Whole Organ, KIDNEY",[1]; [4],0.267 % Dose
same,"% Dose in Whole Organ, LIVER",[1]; [4],0.576 % Dose
same,"% Dose in Whole Organ, MARROW",[1]; [4],0.300 % Dose
same,"% Dose in Whole Organ, MUSCLE",[1]; [4],4.80 % Dose
same,"% Dose in Whole Organ, URINE",[1]; [4],26.2 % Dose
same,"% Dose in Whole Organ, WHOLE FEMUR",[1]; [4],1.84 % Dose
same,"% Dose in Whole Organ, WHOLE TIBIA",[1]; [4],1.57 % Dose
same,"% Dose/1% Body Weight, BLOOD",[1]; [4],0.388 % Dose/1% Body Weight
same,"% Dose/1% Body Weight, FEMUR",[1]; [4],7.87 % Dose/1% Body Weight
same,"% Dose/1% Body Weight, KIDNEY",[1]; [4],0.488 % Dose/1% Body Weight
same,"% Dose/1% Body Weight, LG INT",[1]; [4],0.421 % Dose/1% Body Weight
same,"% Dose/1% Body Weight, LIVER",[1]; [4],0.168 % Dose/1% Body Weight
same,"% Dose/1% Body Weight, MARROW",[1]; [4],0.137 % Dose/1% Body Weight
same,"% Dose/1% Body Weight, MUSCLE",[1]; [4],0.125 % Dose/1% Body Weight
same,"% Dose/1% Body Weight, PELVIS",[1]; [4],9.83 % Dose/1% Body Weight
same,"% Dose/1% Body Weight, SM INT",[1]; [4],0.300 % Dose/1% Body Weight
same,"% Dose/1% Body Weight, SPINE",[1]; [4],9.57 % Dose/1% Body Weight
same,"% Dose/1% Body Weight, TIBIA",[1]; [4],7.64 % Dose/1% Body Weight
same,RATIOS BONE/BLOOD,[1]; [4],23.6
same,RATIOS BONE/MARROW,[1]; [4],66.9
same,RATIOS BONE/MUSCLE,[1]; [4],73.3
same,"% Dose/1% Body Weight, AVG BONE","[1]; 4 hours after I.V. injection, 9 rabbits",9.16 % Dose/1% Body Weight
same,"% Dose in Whole Organ, BLOOD",[1]; [5],0.250 % Dose
same,"% Dose in Whole Organ, KIDNEY",[1]; [5],0.022 % Dose
same,"% Dose in Whole Organ, LIVER",[1]; [5],0.004 % Dose
same,"% Dose in Whole Organ, MARROW",[1]; [5],0.070 % Dose
same,"% Dose in Whole Organ, MUSCLE",[1]; [5],0.628 % Dose
same,"% Dose in Whole Organ, WHOLE FEMUR",[1]; [5],1.55 % Dose
same,"% Dose in Whole Organ, WHOLE TIBIA",[1]; [5],1.38 % Dose
same,"% Dose/1% Body Weight, BLOOD",[1]; [5],0.331 % Dose/1% Body Weight
same,"% Dose/1% Body Weight, FEMUR",[1]; [5],6.39 % Dose/1% Body Weight
same,"% Dose/1% Body Weight, KIDNEY",[1]; [5],0.067 % Dose/1% Body Weight
same,"% Dose/1% Body Weight, LG INT",[1]; [5],0.088 % Dose/1% Body Weight
same,"% Dose/1% Body Weight, LIVER",[1]; [5],0.016 % Dose/1% Body Weight
same,"% Dose/1% Body Weight, MARROW",[1]; [5],0.032 % Dose/1% Body Weight
same,"% Dose/1% Body Weight, MUSCLE",[1]; [5],0.015 % Dose/1% Body Weight
same,"% Dose/1% Body Weight, PELVIS",[1]; [5],8.13 % Dose/1% Body Weight
same,"% Dose/1% Body Weight, SM INT",[1]; [5],0.042 % Dose/1% Body Weight
same,"% Dose/1% Body Weight, SPINE",[1]; [5],6.96 % Dose/1% Body Weight
same,"% Dose/1% Body Weight, TIBIA",[1]; [5],6.58 % Dose/1% Body Weight
same,RATIOS BONE/BLOOD,[1]; [5],20.9
same,RATIOS BONE/MARROW,[1]; [5],217
same,RATIOS BONE/MUSCLE,[1]; [5],462
same,"% Dose/1% Body Weight, AVG BONE","[1]; 24 hours after I.V. injection, 7 rabbits",6.93 % Dose/1% Body Weight
same,biological half life,[2],prolonged
